Molecules are shown by their SMILES.

As usually defined, the inhibition is how much of the control response was suppressed. A higher inhibition goes with a response far below the control. As usually defined, the EC50 is the concentration at which the effect is half-maximal.

The target in experiment [1] is T1, Amyloid-beta precursor protein (Homo sapiens, UniProt P05067). In words: Inhibition of amyloid beta 1 to 42 aggregation (unknown origin) incubated for 24 hrs by inverted fluorescence microscopic analysis relative to control. To be noted: concentration not given here.
T1 sequence (P05067 whole entry): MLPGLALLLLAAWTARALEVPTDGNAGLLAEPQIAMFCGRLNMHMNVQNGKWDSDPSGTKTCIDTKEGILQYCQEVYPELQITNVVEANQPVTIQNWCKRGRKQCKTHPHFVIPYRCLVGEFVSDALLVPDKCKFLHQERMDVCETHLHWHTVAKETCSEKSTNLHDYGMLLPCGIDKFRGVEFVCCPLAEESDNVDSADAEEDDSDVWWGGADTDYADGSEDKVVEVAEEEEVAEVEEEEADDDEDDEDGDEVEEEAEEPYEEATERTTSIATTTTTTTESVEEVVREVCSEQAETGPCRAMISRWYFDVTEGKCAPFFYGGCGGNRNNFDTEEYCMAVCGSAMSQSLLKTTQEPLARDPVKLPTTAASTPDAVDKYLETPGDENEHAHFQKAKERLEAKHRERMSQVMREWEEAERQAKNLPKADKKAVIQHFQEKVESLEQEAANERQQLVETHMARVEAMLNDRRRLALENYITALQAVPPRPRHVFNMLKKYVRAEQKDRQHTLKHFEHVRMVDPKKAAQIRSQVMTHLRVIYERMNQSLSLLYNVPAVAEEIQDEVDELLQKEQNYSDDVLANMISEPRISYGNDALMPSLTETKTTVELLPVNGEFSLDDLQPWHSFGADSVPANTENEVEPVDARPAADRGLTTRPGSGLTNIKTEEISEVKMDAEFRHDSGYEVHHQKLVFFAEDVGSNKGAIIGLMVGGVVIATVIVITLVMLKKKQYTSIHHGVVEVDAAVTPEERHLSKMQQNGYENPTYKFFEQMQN
The target of experiment [2] is T1, Amyloid-beta precursor protein. In words: Inhibition of amyloid beta 1 to 42 aggregation (unknown origin) incubated for 24 hrs by ThT fluorescence assay relative to control. To be noted: concentration not given here.
The target is the same in experiment [3]. The experiment is described as follows: Inhibition of amyloid beta 1 to 42 aggregation (unknown origin) incubated for 24 hrs by inverted fluorescence microscopic analysis.
Experiment [4] has the same target. The experiment is described as follows: Inhibition of amyloid beta 1 to 42 aggregation (unknown origin) incubated for 24 hrs by ThT fluorescence assay.

Regarding `O=C(O)c1cc(O)c(O)c(O)c1-c1c(C(=O)O)cc(O)c(O)c1O`, the inhibition in experiment [1] and in experiment [2] was under 0.01% each time. In addition, the midpoint of the response in experiment [3], the EC50, lay at 562 µM.

For the compound `O=C(O[C@@H]1O[C@@H]2COC(=O)c3cc(O)c(O)c(O)c3-c3c(cc(O)c(O)c3O)C(=O)O[C@H]([C@H]1O)[C@@H]2O)c1cc(O)c(O)c(O)c1` [CORILAGIN], the inhibition in experiment [1] came out at 25%; in experiment [2], 14%. Besides, the EC50 is 14 µM in experiment [4] and 5.04 µM in experiment [3].

As for `O=c1oc2c(O)c(O)cc3c(=O)oc4c(O)c(O)cc1c4c23` [ELLAGIC ACID], the inhibition is 0.15% in experiment [1] and under 0.01% in experiment [2]. The same compound had an EC50 in experiment [3] of 563 µM.

`O=C(O)c1cc(O)c(O)c(O)c1` [GALLIC ACID]: the inhibition in experiment [1] stood at 92%. In addition, the figures for the EC50 in experiment [4] and in experiment [3] were 9.99 µM and 18.8 µM, respectively.

`O=C1O[C@H]2[C@@H]3OC(=O)c4cc(O)c(O)c(O)c4-c4c(cc(O)c(O)c4O)C(=O)OC[C@H]2O[C@@H](OC(=O)c2cc(O)c(O)c(O)c2)[C@@H]3OC(=O)c2cc(O)c(O)c3c2[C@@H]2C1=CC(=O)[C@](O)(O3)C2(O)O` [GERANIIN]: the EC50 in experiment [4] is 10.5 µM; in experiment [3], 7.03 µM.
